# Where “and” joins values, the source holds several entries; their conditions need not be identical. Equal values may be shown once. Read-outs that look alike come from different tables or passages of the source.
# Tests used:
# [1] = Oral pharmacokinetics, statements pooled over mice, rats, and monkeys; format: in vivo; details: mouse, rat, monkey, plasma; after oral administration; read-out: Apparent terminal half-life
# Method: Measurements were performed on TQD and QToF mass spectrometers (Waters).
# Following oral administration of a suspension formulation at doses of 10 to 100 mg/kg, maximal concentrations were observed within 1 to 2 h in mice, and within 1 to 24 h in rats and monkeys.
# [2] = test system: TNF-α-induced NF-κB activation in A549/NF-κB-Luc cells; experiment: TNF-α-induced NF-κB luciferase reporter in A549/NF-κB-Luc; format: cell-based; details: Homo sapiens
# Text: (b) TNF-α-induced activation of an NF-κB luciferase reporter in the human A549 cell line.
# NF-κB is a transcription factor that plays a central role in the regulation of many immune and inflammatory responses. […] The NIH3T3/NF-κB-luc cell line maintains a chromosomal integration of a Firefly luciferase reporter construct regulated by eight copies of the NF-κB response element. The effects of these compounds can be quantified by measuring the value of the NF-κB IC50.
# [3] = test system: fractionated radiation dermatitis; experiment: Fractionated radiation dermatitis in Balb/c mice; format: in vivo, mouse; details: for % Days ≧ 2 (dermatitis score) / % Days ≧ 3 (dermatitis score): 6 × 10 Gy
# Method: The mice were irradiated on days 0-2 and 5-7 with six 10-Gy doses […]. Clinical dermatitis scores for the mice were evaluated blindly every two days from day 4 until the end of the study. […] Study and treatment parameters can be found in Table 6.
# By analyzing the average clinical scores that were shown in FIG. 46, an area under the curve (AUC) analysis was performed, which yielded the severity of the dermatitis relative to how long the dermatitis persisted.
# [4] = test system: Alt1, Alt2, Ast1, Ast2 mRNA in AML-12 hepatocytes; experiment: Transaminase gene mRNA (qPCR) in AML-12; format: cell-based, mouse; details: 250 nM or 500 nM, 18 h
# Method: One hypothesis for this effect is that AIMs directly or indirectly increase transaminase gene expression in the absence of cellular toxicity. […] AML-12 cells were plated in 6-well culture dishes at 3×10^5 cells per well using 2 mL of media per well. […] Each well received 0.1% DMSO. Three independent replicate experiments were performed. Following treatment, media was removed and cells were harvested using RLT buffer (Qiagen). Lysates were homogenized using QIAShredder columns (Qiagen, Catalog #79654) and RNA was isolated using RNeasy Mini kits (Qiagen, Catalog #74104). For reverse transcription, RNA (1 μg) was combined with Oligo(dT)12-18 primer and H2O in a final volume of 23.25 μL. The mixture was heated to 70° C. for 10 min and then placed on ice. A master mix containing 8 μL 5×1st strand buffer, 2 μL 1 mg/ml BSA, 2 μL 20 mM DTT, 4 μL 5 mM dNTP mix, 0.25 μL RNaseOUTTM and 0.5 μL […]® II reverse transcriptase was added to the RNA mixture and incubated at 42° C. for 1 h. The reaction was inactivated by heating to 70° C. for 10 min. The reaction mixture was diluted 1:3 with H2O prior to use in qPCR. 2.5 μL of the diluted reverse transcription reaction was combined with one set of PCR primers (0.36 μM final concentration), 2× iQTM SYBR® Green Supermix (Bio-Rad, Catalog #170-8885) and H2O to a final volume of 20 pt. Sequences for PCR primers are as follows: […] All primers had previously been validated for specificity and amplification efficiency. cDNA was amplified using the following cycle conditions: (95° C. for 3 min, 44 cycles of 95° C. for 30 sec, 60° C. for 15 sec, 72° C. for 15 sec, followed by a melt curve of 55° C. to 95° C. in increments of 0.5° C.). The relative abundance of each target gene was determined using the comparative CT method (ΔΔCT). PCR reactions were run in triplicate wells for each sample.
# [5] = test system: phosphorylation of IκBα in HeLa cells; experiment: TNF-α-induced phosphorylation of IκBα in HeLa (Western); format: cell-based, human; details: 6 h pretreatment, TNF-α 20 ng/mL 5 min
# Method: Total and phosphorylated levels of IκBα were evaluated by Western blot. Primary IκBα antibodies were from Santa-Cruz (sc-371), pIκBα antibody was from Cell Signaling (9246), actin antibody was from Millipore (MAB 1501). Peroxidase-conjugated affini-pure Goat anti-Rabbit (IgG) and peroxidase-conjugated affini-pure Goat anti-Mouse IgG secondary antibodies were purchased from Jackson ImmunoResearch. Protein blots were developed using ECL, and exposed to X-ray film.
# [6] = test system: LPS-induced sepsis; details: mouse, in vivo
# [7] = test system: LPS-induced NO (plasma NOx, Griess Reaction); experiment: Suppression of NO in vivo after LPS in CD-1 mice; design: species or system mouse; details: LPS 5 mg/kg 24 h later
# Method: FIG. 51—Dose-dependent suppression of NO in vivo by 63415. CD-1 mice (n=6) were dosed with DMSO or […] by oral gavage. LPS (5 mg/kg) was administered 24 h later. Twenty-four hours after LPS administration, whole blood was collected for NO assay. NO inhibition was determined by Griess Reaction from reduced, de-proteinated plasma.
# [8] = test system: LPS-induced pulmonary inflammation; experiment: LPS-induced pulmonary inflammation in mice
# [9] = Plasma protein binding (ultracentrifugation), monkey
# [10] = test system: DU-145 prostate cancer cell line; experiment: Cytotoxicity in combination with docetaxel in DU-145; format: cell-based; details: RTA 408 0.125 to 0.75 μM
# Text: This evidence supports the concept that RTA 408 could act synergistically with cancer therapeutic agents and may be used in some embodiments to provide greater efficacy in treating cancer patients.
# [11] = target: CYP2C19 (Homo sapiens, UniProt P33261); experiment: CYP450 inhibition in pooled human liver microsomes, CYP2C19; format: in vitro ADME; details: highest concentration tested (3 μM)
# Text: (§1) In addition, there was little or no evidence of metabolism-dependent inhibition of any of the enzymes tested.
# [12] = target: CYP2B6 (Homo sapiens, UniProt P20813); experiment: CYP450 inhibition in pooled human liver microsomes, CYP2B6; format: in vitro ADME; details: highest concentration tested (3 μM)
# Text: as §1
# [13] = target: CYP2C8 (Homo sapiens, UniProt P10632); experiment: CYP450 inhibition in pooled human liver microsomes, CYP2C8; format: in vitro ADME; details: read-out: Ki, direct inhibition of CYP2C8
# Text: as §1
# CYP2C19, sequence (P33261 whole entry): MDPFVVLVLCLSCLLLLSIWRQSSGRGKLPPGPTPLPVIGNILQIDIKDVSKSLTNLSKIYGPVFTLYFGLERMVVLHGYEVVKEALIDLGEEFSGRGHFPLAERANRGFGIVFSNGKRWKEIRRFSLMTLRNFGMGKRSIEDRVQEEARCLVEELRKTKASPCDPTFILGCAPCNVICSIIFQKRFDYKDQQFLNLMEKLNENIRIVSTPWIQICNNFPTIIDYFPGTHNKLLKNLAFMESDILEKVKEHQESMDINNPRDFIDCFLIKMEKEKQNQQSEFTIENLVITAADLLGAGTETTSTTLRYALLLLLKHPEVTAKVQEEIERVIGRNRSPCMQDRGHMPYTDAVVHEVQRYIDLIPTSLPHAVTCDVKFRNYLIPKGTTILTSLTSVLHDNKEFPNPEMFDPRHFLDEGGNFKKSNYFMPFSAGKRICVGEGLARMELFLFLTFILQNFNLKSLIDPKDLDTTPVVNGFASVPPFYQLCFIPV
# CYP2B6, sequence (P20813 whole entry): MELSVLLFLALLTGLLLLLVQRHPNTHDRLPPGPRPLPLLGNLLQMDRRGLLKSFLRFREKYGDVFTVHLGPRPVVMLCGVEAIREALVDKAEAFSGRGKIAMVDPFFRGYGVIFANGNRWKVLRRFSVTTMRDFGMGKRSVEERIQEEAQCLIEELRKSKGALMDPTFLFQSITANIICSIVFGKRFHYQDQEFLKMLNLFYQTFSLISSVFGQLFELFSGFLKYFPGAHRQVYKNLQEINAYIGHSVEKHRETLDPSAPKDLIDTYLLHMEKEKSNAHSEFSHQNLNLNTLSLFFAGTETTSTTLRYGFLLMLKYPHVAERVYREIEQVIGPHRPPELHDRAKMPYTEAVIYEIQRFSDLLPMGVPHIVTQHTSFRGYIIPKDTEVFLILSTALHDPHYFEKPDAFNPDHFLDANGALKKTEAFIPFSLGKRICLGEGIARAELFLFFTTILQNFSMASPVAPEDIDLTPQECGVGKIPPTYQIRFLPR
# CYP2C8, sequence (P10632 whole entry): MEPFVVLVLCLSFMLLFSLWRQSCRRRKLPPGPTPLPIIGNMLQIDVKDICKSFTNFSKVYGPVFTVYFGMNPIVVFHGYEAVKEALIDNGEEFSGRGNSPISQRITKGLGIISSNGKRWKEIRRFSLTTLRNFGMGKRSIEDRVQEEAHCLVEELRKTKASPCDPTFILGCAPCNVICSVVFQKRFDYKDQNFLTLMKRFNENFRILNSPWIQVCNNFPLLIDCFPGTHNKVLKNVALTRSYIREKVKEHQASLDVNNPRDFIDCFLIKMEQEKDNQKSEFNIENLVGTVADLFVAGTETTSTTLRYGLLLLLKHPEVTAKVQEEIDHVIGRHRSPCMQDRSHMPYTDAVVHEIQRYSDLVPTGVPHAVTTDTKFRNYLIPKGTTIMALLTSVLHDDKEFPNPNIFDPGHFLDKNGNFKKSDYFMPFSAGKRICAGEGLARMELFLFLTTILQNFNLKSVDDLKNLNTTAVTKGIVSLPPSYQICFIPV
smiles,measurement,setting,value
"CC1(C)CC[C@]2(NC(=O)C(C)(F)F)CC[C@]3(C)[C@H](C(=O)C=C4[C@@]5(C)C=C(C#N)C(=O)C(C)(C)[C@@H]5CC[C@]43C)[C@@H]2C1 [RTA 408, N-((4aS,6aR,6bS,8aR,12aS,14aR,14bS)-11-cyano-2,2,6a,6b,9,9,12a-heptamethyl-10,14-dioxo-1,2,3,4,4a,5,6,6a,6b,7,8,8a,9,10,12a,14,14a,14b-octadecahydropicen-4a-yl)-2,2-difluoropropanamide]",half-life,[1],6 to 26 h
same,IC50,"[2]; not viability normalized, read-out: NF-κB IC50, human A549 cell line (further experimentation)",1700 nM
same,IC50,"[2]; read-out: NF-κB IC50, human A549 cell line, viability normalized",1700 nM
same,Average clinical dermatitis score,[3]; 0.1% to 1% topical formulations,statistically significant improvement in the scores
same,% Days ≧ 2 (dermatitis score),[3]; topical 0.01%,54%
same,% Days ≧ 3 (dermatitis score),[3]; topical 0.01%,29%
same,% Days ≧ 2 (dermatitis score),[3]; topical 0.1%,40%
same,% Days ≧ 3 (dermatitis score),[3]; topical 0.1%,13%
same,% Days ≧ 3 (dermatitis score),"[3]; topical 1%, vehicle 33%",6%
same,% Days ≧ 2 (dermatitis score),"[3]; topical 1%, vehicle 60%",21%
same,mRNA levels of alanine transaminase 1 (Alt1 or Gpt1),[4],increased mRNA levels of alanine transaminase 1
same,mRNA levels of alanine transaminase 2 (Alt2 or Gpt2),[4],no effect
same,mRNA levels of aspartate transaminase 1 (Ast1 or Got1),[4],increased mRNA levels
same,mRNA levels of aspartate transaminase 2 (Ast2 or Got2),[4],reduced mRNA levels
same,TNF-α-induced phosphorylation of IκBα,[5],inhibited TNF-α-induced phosphorylation of IκBα in a dose-dependent manner
same,Animals surviving until Day 4,[6],80% and 90%
same,"Survival, systemic LPS",[6],improved survival
same,NOx Levels (% vs LPS Controls),[7]; 13 mg/kg oral gavage,30%
same,NOx Levels (% vs LPS Controls),[7]; 25 mg/kg oral gavage,18%
same,NOx Levels (% vs LPS Controls),[7]; 50 mg/kg oral gavage,16%
same,"BALF cytokines, second study",[8]; 10 mg/kg daily for six days,Significant reductions in TNF-α
same,"BALF cytokines, second study",[8]; 30 mg/kg daily for six days,"significant reductions in IL-12p40, TNF-α, and RANTES"
same,"Body weight, second study","[8]; 100 mg/kg daily, starting on Day 3",significant decreases in body weight
same,"Lung NQO1 enzyme activity (with increases in total GSH), second study",[8]; 10 and 30 mg/kg,significant induction of NQO1 enzyme activity
same,"BALF pro-inflammatory markers, first study","[8]; 30, 100, or 150 mg/kg orally once daily for three days",significant reduction in IL-12p40 at all doses and in TNF-α at the 100 and 150 mg/kg doses
same,"Peak reductions in TNF-α, IL-6, and IL-12 in BALF","[8]; QD×3, LPS 1 h after last dose, BALB/c mice",50%-80%
same,fraction unbound,[9],0.05
same,Cytotoxicity of docetaxel in combination,[10],amplified the cytotoxicity of the chemotherapeutic agent in a statistically significant fashion
same,inhibition at 3 µM,[11],< 50%
same,inhibition at 3 µM,[12],< 50%
same,Ki,[13],~500 nM
